From PMC7494652 (Bioorganic & medicinal chemistry letters, 2020)
Like-named read-outs stand apart in the source and are kept apart here.

Key:
[1] = Solubility in sodium phosphate buffer; assay type: physicochemical
[2] = target: T1, human sEH (Homo sapiens, UniProt P34913); assay: Inhibition of human sEH, kinetic fluorescent assay
T1 sequence (P34913 1-555): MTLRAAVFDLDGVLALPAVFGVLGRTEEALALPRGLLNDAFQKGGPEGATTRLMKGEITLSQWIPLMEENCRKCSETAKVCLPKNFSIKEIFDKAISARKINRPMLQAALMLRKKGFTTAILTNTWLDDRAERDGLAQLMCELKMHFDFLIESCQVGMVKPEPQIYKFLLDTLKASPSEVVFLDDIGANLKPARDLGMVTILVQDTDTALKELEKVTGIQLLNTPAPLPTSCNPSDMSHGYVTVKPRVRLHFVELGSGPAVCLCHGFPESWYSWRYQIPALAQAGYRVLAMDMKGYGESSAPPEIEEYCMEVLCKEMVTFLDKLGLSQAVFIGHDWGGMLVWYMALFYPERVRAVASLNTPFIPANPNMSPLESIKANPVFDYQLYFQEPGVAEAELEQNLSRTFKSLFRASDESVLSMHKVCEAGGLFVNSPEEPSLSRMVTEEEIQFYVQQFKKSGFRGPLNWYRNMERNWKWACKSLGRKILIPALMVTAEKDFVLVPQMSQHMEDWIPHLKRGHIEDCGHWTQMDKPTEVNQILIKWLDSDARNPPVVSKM

[3] = cited from earlier work

For `CC1(C)[C@H]2CC[C@]1(C)C(NC(=O)Nc1ccccc1F)C2` (mixture of isomers) [(S)-2b], which solubility ([1]; pH 7.4, aqueous buffer) is on record?
The solubility was 225 ± 25 µM.

With `O=C(NC1CC2C=CC1C2)N[C@H]1CC[C@H](Oc2ccc(C(=O)O)cc2)CC1` (some centres unmarked) [1a] as the compound, how does the “Fold more soluble than t-AUCB” value ([1]; sodium phosphate buffer) read?
The value was 2 fold.

What about the “Solubility compared with t-TUCB” value ([1]; sodium phosphate buffer) of the same compound?
Its value is “significantly more soluble”.

Which IC50 [2] does the source give for `O=C(NCCCCCCCCNC(=O)NCc1ccco1)NCc1ccco1` [5i] here?
Its IC50 is 214 nM.

For `O=C(Nc1ccc(OC(F)(F)F)cc1)N[C@H]1CC[C@H](Oc2ccc(C(=O)O)cc2)CC1` [t-TUCB], which solubility [3] is on record?
Its solubility is 5[19] μM.
